Measured values taken from publication PMC6155913, “Reaction of 3-Amino-1,2,4-Triazole with Diethyl Phosphite and Triethyl Orthoformate: Acid-Base Properties and Antiosteoporotic Activities of the Products” (Molecules : A Journal of Synthetic Chemistry and Natural …, 2017).
Where two headings read alike, the source gives them in different places. Blank lines part the entries; values can stand above or below the compound they belong to.

Legend:
[1] = cited from earlier work
[2] = Protonation constants by potentiometric titration; format: physicochemical; settings: Potentiometry, 0.1 M KCl, 25 °C, [L] = 1 × 10^−3 M, error 1σ
Experimental: (§1) The acid-base properties of compounds 1 and 2 were determined to understand their behaviour in aqueous solutions. These studies were performed using potentiometry prompted by pH-UV titration studies and, for compound 1, pH*-NMR titration studies (pH* = pH uncorrected for the isotopic effect).
The titration studies of the compounds were carried out in double-distilled water using a Metrohm 809 Titrando system equipped with a combined glass electrode (Metrohm 6.0224.100) which was calibrated daily for hydrogen concentration using HCl (Merck, Warsow, Poland) (0.004 M) according to the procedure of Irving et al.. The ionic strength was fixed at I = 0.1 M with KCl (POCh). Alkali, CO2-free 0.1017 M KOH solution (POCh) was standardized by titration with potassium hydrogen phthalate (Merck). The ionic product of water under the experimental conditions was 10^−13.77 mol^2·dm^−6. The purity and exact concentration of each ligand were determined by the method of Gran. The titrations were carried out on 2.0 mL samples in a thermostatted cell at 25 ± 0.2 °C under a stream of Ar. The HYPERQUAD2013 computer program was applied to calculate the protonation constants. Triplicate titrations of each ligand (177–222 points) in a concentration of 1.0 × 10^−3 mol·dm^−3 were performed and used for the calculations. The distribution curves of the protonated species of the compounds (marked as L) as a function of pH were calculated using the HySS2009 program.

[3] = Protonation constants by pH-UV (UV-Vis) titration; format: physicochemical; settings: 0.1 M KCl, 25 °C, [L] = 7 × 10^−5 M, error 1σ
Experimental: as §1
The results of the potentiometric studies are supported by spectroscopic determination of the pK values of the studied compounds. The results, obtained from electronic spectra generated in the HypSpec program for the detected species, are presented in Table 2 and Figure S1. […] For compound 1, the band at approximately 215 nm was already present under a very acidic pH value (pH 1.57) (Figure 4). This band is assigned to the protonated 1,2,4-triazole. The band underwent a bathochromic shift to 230 nm when the pH rises, which is assigned to the H4L → H3L^− + H^+ deprotonation process at a pK4 of 4.22 or 4.16 (estimated potentiometrically or spectrophotometrically, respectively). This was the biggest change in absorption for the spectroscopic determination by UV spectrophotometry. This change was the reason for assigning the pK4 value to the deprotonation of 1,2,4-triazole. Adequate changes occur for the spectra of compound 2. […] Generally, spectroscopic titrations (see Figure S23 Supplementary Materials) are in a good agreement with potentiometric titrations and provide similar pK values.
Absorption spectra for the compounds were collected using a Varian Cary 50 spectrophotometer (Varian, Mulgrave, Victoria, Australia) in Quartz Hellma curvets with a 1 cm optical path. The solutions were prepared by dissolving the appropriate concentration of ligands ([L] = 7 × 10^−5 mol·dm^−3) in 0.004 M HCl with 0.1 M ionic strength (KCl). The background electrolyte was used as a baseline reference. Solution pH was changed manually by adding small amounts of concentrated potassium hydroxide and checked the pH using the 913 Metrohm pH meter equipped with a combined glass electrode (Metrohm 6.0224.100, Herisau, Switzerland). The protonation constants and spectral deconvolution were refined using the least squares fitting program HypSpec. Factor analysis by the HypSpec software (http://www.hyperquad.co.uk/) was implemented to characterize the number of species present in the solution.

[4] = system: mouse macrophage-like J774E cells; assay: Antiproliferative activity, MTT assay; format: cell-based; settings: J774E macrophages, 72 h exposure
Experimental: To screen for potential antiosteoporotic activity of the bisphosphonates, their antiproliferative activity towards in vitro cell cultures was determined. J774E macrophages and osteoclasts are both derived from haematopoietic lineage and are highly endocytic and capable of demineralizing bone particles. Therefore, they are models for studies on the influence of bisphosphonates on the proliferation and activity of […]. For this purpose, mouse macrophage-like J774E cells, originating from the same precursors as the osteoclasts, were used. Such cells are well recognized for being sensitive to bisphosphonates, which likely act by inducing apoptosis in the cells. The J744E cell line was obtained from a cell bank at the Ludwik Hirszfeld Institute of Immunology and Experimental Therapy, Polish Academy of Sciences.
This experiment was performed according to a previously published procedure. To use the cell line, it is necessary to first thaw the cells using a water bath at 37 °C and gentle stirring. The cells were placed into the culture medium. This line was passaged 2 times a week in RPMI (growth medium consisting of 10% FBS, 100 μg/mL streptomycin, 100 U/mL penicillin and 2 mM glutamine) in Petri dishes. The cell growth was monitored under a microscope, and part of the material was used in the next stage of the experiment. Then, the cells were separated from the bottom (the surface proteins present on the plasma membrane allowing adhesion were destroyed) and were collected from the culture vessel. Then, in a Bürker chamber, the cell density was counted using a drop of cell suspension in a mixture ratio of 1:1 with trypan blue.
Then, a 96-well microtiter plate assay was performed with 100 μL of cells (5 × 10^4/mL) in a cultivation solution followed, after 24 h, by the addition of 100 μL of a solution of the tested compound (10^−3, 10^−4, 10^−5, or 10^−6 M) in the same medium. Plates were incubated at 37 °C in a humidified atmosphere saturated with 5% CO2. The in vitro cytotoxicities of all agents were examined by colorimetric MTT assay after 72 h of exposure of the cultured cells to varying concentrations of the tested compounds [32]. Briefly, 20 μL of the MTT solution (MTT: 3-(4,5-dimethylthiazol-2-yl)-2,5-diphenyl tetrazolium bromide) was added to each well and incubated for 4 h. After the incubation period was completed, 80 μL of the lysing mixture was added to each well (lysing mixture: 225 mL dimethylformamide, 67.5 g sodium dodecyl sulfate and 275 mL of distilled water). The optical densities of the samples were determined after 24 h using a Multiskan RC photometer (Labsystems, Helsinki, Finland) at 570 nm.

SMILES: c1c[nH]nn1 [1,2,3-triazole]
pK of triazole ([1]; unsubstituted triazole): 9.26

SMILES: c1nc[nH]n1 [1,2,4-triazole]
pK of triazole ([1]; unsubstituted triazole): 9.95

SMILES: OCCCn1cc(-c2ccccn2)nn1 [3-(4-(pyridine-2-yl)-1H-1,2,3-triazol-1-yl-propan-1-ol]
pK of triazole ([1]; 1,2,3-triazole-pyridines, previously reported): 3.40

SMILES: Nc1nc[nH]n1 [3-amino-1,2,4-triazole]
pK of triazole ([1]; substituted triazole, previously reported): 4.20

pK1(HL) amine [2]: 11.52(3) | pK2(H2L) phosphonate [2]: 9.62(3) | pK3(H3L) phosphonate [2]: 6.54(4) | pK5(H5L) phosphonate [2]: 1.48(4) | pK2(H2L) phosphonate ([2]; listed as compound 1): 9.62 | pK3(H3L) phosphonate ([2]; listed as compound 1): 6.54 | pK4(H4L) triazole ([2]; listed as compound 1): 4.22 | pK5(H5L) phosphonate ([2]; listed as compound 1): 1.48 | pK1(HL) amine [3]: 11.68(2) | pK2(H2L) phosphonate [3]: 9.32(5) | pK3(H3L) phosphonate [3]: 6.15(6) | pK4(H4L) triazole [3]: 4.16(6) | pK5(H5L) phosphonate [3]: 0.67(6) | pK4(H4L) triazole ([3]; listed as compound 1): 4.16
SMILES: O=P(O)(O)C(Nc1nc[nH]n1)P(=O)(O)O [Compound 1, 1,2,4-Triazolyl-3-yl-Aminomethylenebisphosphonic Acid]
IC50 [4]: 25 µM | IC50 ([4]; Mus musculus, Macrophage, 72 h): 24.9 ± 5.17 µM

pK1(HL) amine [2]: 10.81(1) | pK2(H2L) phosphonate [2]: 9.43(1) | pK3(H3L) phosphonate [2]: 6.73(1) | pK5(H5L) phosphonate [2]: 1.69(1) | pK2(H2L) phosphonate [3]: 9.56(2) | pK3(H3L) phosphonate [3]: 5.90(2) | pK4(H4L) triazole [3]: 3.32(2) | pK4(H4L) triazole ([3]; listed as compound 2): 3.32
SMILES: CCn1cnc(NC(P(=O)(O)O)P(=O)(O)O)n1 [Compound 2]
IC50 ([4]; Mus musculus, Macrophage, 72 h): 30.6 ± 4.64 µM

SMILES: O=P(O)(O)C(NC1CCCCCC1)P(=O)(O)O [incadronic acid, reference compound]
IC50 ([4]; Mus musculus, Macrophage, 72 h): 47.9 ± 1.39 µM

SMILES: O=P(O)(O)C(O)(Cn1ccnc1)P(=O)(O)O [zoledronic acid, reference compound]
IC50 ([4]; Mus musculus, Macrophage, 72 h): 24.5 ± 2.23 µM
